What was measured:
HupT3 = assay: Antiproliferation MTS assay, pancreatic cancer cells; assay type: cell-based; conditions: Homo sapiens
BXPC-3 = assay: as above; assay type: cell-based; conditions: Homo sapiens
[1] = molecular target: T1, recombinant human His6-GSK-3β (Homo sapiens, UniProt P49841); assay: GSK-3β kinase assay, [γ32P] transfer to primed glycogen synthase peptide; assay type: biochemical; conditions: for IC50: 10 μM ATP, 10 μM pGSM peptide, 30 minutes at 30° C., read-out: IC50 (nM), GSK-3β inhibition;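 for all read-outs here: phosphate incorporation quantified by liquid scintillation counting of the filters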
T1 construct: His6; purchased EMD Biosciences
T1 sequence (P49841 whole entry): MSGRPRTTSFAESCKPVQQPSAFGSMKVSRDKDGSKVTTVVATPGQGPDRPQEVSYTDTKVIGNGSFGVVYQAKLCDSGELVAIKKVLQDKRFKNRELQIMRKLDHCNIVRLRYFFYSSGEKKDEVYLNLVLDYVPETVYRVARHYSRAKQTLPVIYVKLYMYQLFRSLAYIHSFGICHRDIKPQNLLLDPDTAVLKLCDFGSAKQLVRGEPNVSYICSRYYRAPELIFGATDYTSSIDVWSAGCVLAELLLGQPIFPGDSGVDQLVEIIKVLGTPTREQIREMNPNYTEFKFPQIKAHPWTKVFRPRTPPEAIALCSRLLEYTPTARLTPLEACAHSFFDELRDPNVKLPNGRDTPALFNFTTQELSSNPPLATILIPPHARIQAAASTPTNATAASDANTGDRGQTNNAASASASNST

MIAPaCa-2 = assay: Antiproliferation MTS assay, pancreatic cancer cells; assay type: cell-based; conditions: Homo sapiens
[2] = system: pancreatic cancer cell lines; assay: Proliferation and survival of pancreatic cancer cells (overall statements); assay type: cell-based; conditions: based on data of Table 5
Description: The pancreatic cancer cell lines BxPc-3, HupT3, MiaPaCa-2, Panc 04.03, and SU86.86 were obtained from ATCC (Rockville, Md.) and were grown in medium (DMEM or RPMI) containing 10% fetal calf serum and L-glutamine. Pancreatic cancer cells were plated out in duplicate into 6-wells of a 96-well microtiter plate at 2.5−4×10^3 cells per well. Four-hours post plating, individual wells were treated with diluent (DMSO) or varying concentrations of commercial compounds, AR-A014418 and SB216763, or the indicated GSK inhibitors of this invention from a concentration of 1 nM to 50 microM. […] The IC50s were calculated using XLfit (IDBS Limited, Guildford, UK).

CDK-2/cyclinE = CDK-2/cyclinE (Homo sapiens, UniProt P24941); assay: CDK-2/CyclinE inhibition (Reaction Biology); assay type: biochemical
PKCβ2 = PKCβ2 (Homo sapiens, UniProt P05771); assay: Inhibition of various kinases (% inhibition); assay type: biochemical
PKCβ2, sequence (P05771 1-673 isoform P05771-2): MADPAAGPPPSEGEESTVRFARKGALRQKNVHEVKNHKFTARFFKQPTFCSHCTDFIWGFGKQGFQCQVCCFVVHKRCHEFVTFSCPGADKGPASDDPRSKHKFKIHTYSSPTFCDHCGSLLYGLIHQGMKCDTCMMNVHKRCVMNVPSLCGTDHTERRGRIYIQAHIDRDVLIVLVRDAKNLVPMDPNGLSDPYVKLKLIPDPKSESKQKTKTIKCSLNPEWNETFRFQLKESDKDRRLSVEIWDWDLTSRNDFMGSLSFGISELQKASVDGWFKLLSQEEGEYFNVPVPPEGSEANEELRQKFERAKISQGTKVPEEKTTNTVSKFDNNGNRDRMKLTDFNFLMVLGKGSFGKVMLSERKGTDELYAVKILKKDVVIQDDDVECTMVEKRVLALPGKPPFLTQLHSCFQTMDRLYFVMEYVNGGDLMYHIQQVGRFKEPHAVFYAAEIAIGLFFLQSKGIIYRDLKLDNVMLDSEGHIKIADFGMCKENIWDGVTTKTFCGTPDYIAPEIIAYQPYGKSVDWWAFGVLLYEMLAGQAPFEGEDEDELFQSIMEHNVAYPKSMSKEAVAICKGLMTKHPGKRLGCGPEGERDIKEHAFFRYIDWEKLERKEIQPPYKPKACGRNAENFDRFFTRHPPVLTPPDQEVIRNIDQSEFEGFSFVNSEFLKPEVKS
Source text: (§1) Additional examples of selectivity are illustrated in Table 4.

GSK3α = GSK3α (Homo sapiens, UniProt P49840); assay: Inhibition of various kinases (% inhibition); assay type: biochemical
GSK3α, sequence (P49840 whole entry, species assumed): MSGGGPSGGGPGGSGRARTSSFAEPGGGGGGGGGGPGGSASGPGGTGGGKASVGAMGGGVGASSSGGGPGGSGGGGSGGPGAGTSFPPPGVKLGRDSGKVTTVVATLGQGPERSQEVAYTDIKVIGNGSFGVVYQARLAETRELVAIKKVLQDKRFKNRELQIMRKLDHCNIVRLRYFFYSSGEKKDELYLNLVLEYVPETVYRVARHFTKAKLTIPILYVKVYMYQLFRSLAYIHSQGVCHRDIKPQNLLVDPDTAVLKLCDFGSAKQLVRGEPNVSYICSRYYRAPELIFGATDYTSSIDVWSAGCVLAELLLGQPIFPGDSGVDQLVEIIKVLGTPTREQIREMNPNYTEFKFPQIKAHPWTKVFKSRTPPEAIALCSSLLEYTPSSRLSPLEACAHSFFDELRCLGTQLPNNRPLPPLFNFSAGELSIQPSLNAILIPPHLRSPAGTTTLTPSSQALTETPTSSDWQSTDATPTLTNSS
Source text: as §1

PDK1 = molecular target: T2, PDK1 (Homo sapiens, UniProt O15530); assay: Inhibition of various kinases (% inhibition); assay type: biochemical
T2 sequence (O15530 1-556): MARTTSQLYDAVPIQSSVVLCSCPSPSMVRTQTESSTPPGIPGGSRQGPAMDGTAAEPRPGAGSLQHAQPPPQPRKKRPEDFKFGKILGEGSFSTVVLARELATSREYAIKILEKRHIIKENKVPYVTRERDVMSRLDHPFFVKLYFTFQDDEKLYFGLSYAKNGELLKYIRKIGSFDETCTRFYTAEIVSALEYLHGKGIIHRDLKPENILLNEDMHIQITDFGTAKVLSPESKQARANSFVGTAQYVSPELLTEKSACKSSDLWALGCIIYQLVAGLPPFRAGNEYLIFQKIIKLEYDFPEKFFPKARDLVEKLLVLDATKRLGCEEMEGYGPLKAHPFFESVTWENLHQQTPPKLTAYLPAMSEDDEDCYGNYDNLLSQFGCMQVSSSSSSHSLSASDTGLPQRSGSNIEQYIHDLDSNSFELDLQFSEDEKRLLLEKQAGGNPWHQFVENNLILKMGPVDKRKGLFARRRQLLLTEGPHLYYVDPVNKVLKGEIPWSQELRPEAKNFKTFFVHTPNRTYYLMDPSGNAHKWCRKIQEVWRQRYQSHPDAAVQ
Source text: as §1

CDK2 = CDK2 (Homo sapiens, UniProt P24941); assay: Inhibition of various kinases (% inhibition); assay type: biochemical
Source text: as §1

[3] = HuP-T3, as reported in Gaisina et al. (2009) J. Med. Chem. 52(7), 1853-1863
[4] = BXPC-3, as reported in Gaisina et al. (2009) J. Med. Chem. 52(7), 1853-1863
[5] = MIA PaCa-2, as reported in Gaisina et al. (2009) J. Med. Chem. 52(7), 1853-1863

Compound | IC50 (HupT3; [3]) [µM] | IC50 (HupT3; HuP-T3, 72 hrs, MTS) [µM] | IC50 (BXPC-3; [4]) [µM] | IC50 (BXPC-3; BXPC-3, 72 hrs, MTS) [µM] | IC50 [1] [nM] | IC50 (MIAPaCa-2; [5]) [µM] | IC50 (MIAPaCa-2; MIA PaCa-2, 72 hrs, MTS) [µM] | Inhibition of pancreatic cancer cell proliferation compared with AR-A014418 and SB216768 [2] | IC50 Ratio CDK-2/cyclinE GSK-3β (CDK-2/cyclinE; selectivity ratio) | IC50 (CDK-2/cyclinE; tested at Reaction Biology, Inc.) [nM] | % Inhibition PKCβ2 (PKCβ2; 1 μM) [%] | % Inhibition PKCβ2 (PKCβ2; 10 μM) [%] | % Inhibition GSK3α (GSK3α; 1 μM) [%] | % Inhibition GSK3α (GSK3α; 10 μM) [%] | % Inhibition PDK1 (PDK1; 1 μM) [%] | % Inhibition PDK1 (PDK1; 10 μM) [%] | % Inhibition CDK2 (CDK2; 1 μM) [%] | % Inhibition CDK2 (CDK2; 10 μM) [%] | Ki [1] [nM]
Cn1cc(C2=C(c3coc4ccc(F)cc34)C(=O)NC2=O)c2cc(C#CC3CC3)ccc21 [Compound 38, 3-(5-Cyclopropylethynyl-1-methyl-1H-indol-3-yl)-4-(5-fluoro-benzofuran-3-yl)-pyrrole-2,5-dione] | > 50 | > 50 | > 50 | > 50 | 16.2 ± 3.9 | 34 ± 2.2 | 34 | more effective inhibition of pancreatic cancer cell proliferation than these reference compounds | – | – | – | – | – | – | – | – | – | – | –
3-Benzofuran-3-yl-4-[5-bromo-1-(3-hydroxy-propyl)-1H-indol-3-yl]-pyrrole-2,5-dione [Compound 20] | – | – | – | – | 7.5 ± 1.1 | – | – | – | 150 | 1160 | 8 | 62 | 58 | 100 | 7 | −1 | 76 | 90 | 5
N#Cc1ccc2c(c1)c(C1=C(c3coc4cc(F)c(F)cc34)C(=O)NC1=O)cn2CC1CC1 [Compound 35, 1-Cyclopropylmethyl-3-[4-(5,6-difluoro-benzofuran-3-yl)-2,5-dioxo-2,5-dihydro-1H-pyrrol-3-yl]-1H-indole-5-carbonitrile] | – | > 50 | – | > 50 | 131 ± 22 | – | 14 | – | – | – | – | – | – | – | – | – | – | – | –
COc1cccc2c(C3=C(c4cn(C)c5cc(C(F)(F)F)ccc45)C(=O)NC3=O)coc12 [Compound 49, 3-(7-Methoxy-benzofuran-3-yl)-4-(1-methyl-6-trifluoromethyl-1H-indol-3-yl)-pyrrole-2,5-dione] | 6 ± 0.5 | 6 | 6 ± 0.8 | 6 | 831 ± 77 | 8 ± 1.2 | 8 | more effective inhibition of pancreatic cancer cell proliferation than these reference compounds | – | – | – | – | – | – | – | – | – | – | –
Cn1cc(C2=C(c3coc4ccccc34)C(=O)NC2=O)c2cc(F)c(Cl)cc21 [Compound 12, 3-Benzofuran-3-yl-4-(6-chloro-5-fluoro-1-methyl-1H-indol-3-yl)-pyrrole-2,5-dione] | 2 ± 0.3 | – | 2 ± 0.2 | – | 184 ± 31 | 3 ± 0.4 | < 1 | more effective inhibition of pancreatic cancer cell proliferation than these reference compounds | – | – | – | – | – | – | – | – | – | – | –
Cn1cc(C2=C(c3coc4cc(F)c(F)cc34)C(=O)NC2=O)c2ccc3ccccc3c21 [Compound 55, 3-(5,6-Difluoro-benzofuran-3-yl)-4-(1-methyl-1H-benzo[g]indol-3-yl)-pyrrole-2,5-dione] | 6 ± 0.7 | 6 | – | 7 | 314 ± 19 | 17 ± 3.2 | 17 | more effective inhibition of pancreatic cancer cell proliferation than these reference compounds | – | – | – | – | – | – | – | – | – | – | –

Reference: patent US8207216B2, “Benzofuran-3-yl(indol-3-yl) maleimides as potent GSK3 inhibitors” (The Board of Trustees of the University of Illinois, priority 2006, dated 2012)
